Patent US10273218B2, “BCL-3 inhibitors” (University College Cardiff Consultants Limited, priority 2014, dated 2019)

| Structure (SMILES) | melting point [°C] |
| --- | --- |
| O=C(NCCN1CCOCC1)c1ccccc1NC(=O)c1ccccc1C(F)(F)F [Compound 9, N-(2-morpholinoethyl)-2-(2-(trifluoromethyl)benzamido) benzamide] | 90 to 92 |
| O=C(Nc1ccccc1C(=O)NCCN1CCOCC1)c1ccc(C(F)(F)F)cc1 [Compound 11, N-(2-morpholinoethyl)-2-(4-(trifluoromethyl)benzamido) benzamide] | 99 to 101 |
| O=C(Nc1cccc(F)c1C(=O)NCCN1CCOCC1)c1ccccc1F [Compound 13, 2-fluoro-6-(2-fluorobenzamido)-N-(2-morpholinoethyl) benzamide] | 88 to 90 |
| O=C(Nc1cc(F)ccc1C(=O)NCCN1CCOCC1)c1ccccc1F [Compound 14, 4-fluoro-2-(2-fluorobenzamido)-N-(2-morpholinoethyl) benzamide] | 104 to 106 |
| COc1cccc(C(=O)NCCN2CCOCC2)c1NC(=O)c1cccc(F)c1 [Compound 17, 2-(3-fluorobenzamido)-3-methoxy-N-(2-morpholinoethyl) benzamide] | 128 to 131 |
| COc1cccc(C(=O)NCCN2CCOCC2)c1NC(=O)c1ccc(F)cc1 [Compound 18, 2-(4-fluorobenzamido)-3-methoxy-N-(2-morpholinoethyl) benzamide] | 148 to 151 |
| COc1cc(NC(=O)c2ccccc2F)c(C(=O)NCCN2CCOCC2)cc1OC [Compound 19, 2-(2-fluorobenzamido)-4,5-dimethoxy-N-(2-morpholinoethyl) benzamide] | 136 |
| COc1cc(NC(=O)c2ccccc2F)c(C(=O)NCCN2CCOCC2)c(OC)c1OC [Compound 20, 6-(2-fluorobenzamido)-2,3,4-trimethoxy-N-(2-morpholinoethyl) benzamide] | 141 |
| COc1ccccc1C(=O)Nc1c(OC)cccc1C(=O)NCCN1CCOCC1 [Compound 25, 3-methoxy-2-(2-methoxybenzamido)-N-(2-morpholinoethyl) benzamide] | 105 to 107 |
| COc1cccc(C(=O)Nc2c(OC)cccc2C(=O)NCCN2CCOCC2)c1 [Compound 26, 3-methoxy-2-(3-methoxybenzamido)-N-(2-morpholinoethyl) benzamide] | 110 to 113 |
| COc1ccc(C(=O)Nc2cc(OC)c(OC)c(OC)c2C(=O)NCCN2CCOCC2)cc1 [Compound 27, 2,3,4-trimethoxy-6-(4-methoxybenzamido)-N-(2-morpholinoethyl)benzamide] | 143 |
| COc1ccc(C(=O)Nc2c(OC)cccc2C(=O)NCCN2CCOCC2)c(OC)c1 [Compound 29, 2-(2,4-dimethoxybenzamido)-3-methoxy-N-(2-morpholinoethyl) benzamide] | 103 to 106 |
| O=C(Nc1ccccc1C(=O)NCCN1CCOCC1)c1cccnc1 [Compound 32, N-(2-((2-morpholinoethyl)carbamoyl)phenyl)nicotinamide] | 85 |
| COc1cc(NC(=O)c2cccnc2)c(C(=O)NCCN2CCOCC2)c(OC)c1OC [Compound 33, N-(3,4,5-trimethoxy-2-((2-morpholinoethyl)carbamoyl)phenyl) nicotinamide] | 155 |
| O=C(Nc1ccccc1C(=O)NCCCN1CCOCC1)c1ccccc1F [Compound 34, 2-fluoro-N-(2-((3-morpholinopropyl)carbamoyl)phenyl) benzamide] | 76 to 79 |
| COc1ccc(C(=O)Nc2ccccc2C(=O)NCCCN2CCOCC2)cc1 [Compound 35, 2-(4-methoxybenzamido)-N-(3-morpholinopropyl)benzamide] | 112 to 114 |
| O=C(NCCCN1CCOCC1)c1ccccc1NC(=O)c1cccc2ccccc12 [Compound 36, N-(2-((3-morpholinopropyl)carbamoyl)phenyl)-1-naphthamide] | 110 to 112 |
| O=C(Nc1ccccc1C(=O)NCCCN1CCOCC1)c1ccc2ccccc2c1 [Compound 37, N-(2-((3-morpholinopropyl)carbamoyl)phenyl)-2-naphthamide] | 103 to 105 |
| O=C(Nc1ccccc1C(=O)NCCN1CCNCC1)c1ccc([N+](=O)[O-])cc1 [Compound 38, 2-(4-nitrobenzamido)-N-(2-(piperazin-1-yl)ethyl)benzamide] | 98 |
| O=C(Nc1ccccc1C(=O)NCCN1CCNCC1)c1ccc(Cl)cc1 [Compound 39, 2-(4-chlorobenzamido)-N-(2-(piperazin-1-yl)ethyl)benzamide] | 60 |
| COc1ccc(C(=O)Nc2ccccc2C(=O)NCCN2CCNCC2)cc1 [Compound 42, 2-(4-methoxybenzamido)-N-(2-(piperazin-1-yl)ethyl)benzamide] | 91 |
| O=C(Nc1ccccc1C(=O)NCCN1CCNCC1)c1cc(F)cc(F)c1 [Compound 43, 3,5-difluoro-N-(2-((2-(piperazin-1-yl)ethyl)carbamoyl)phenyl) benzamide] | 68 |
| O=C(NCCN1CCNCC1)c1ccccc1NC(=O)c1c(F)cccc1F [Compound 44, 2,6-difluoro-N-(2-((2-(piperazin-1-yl)ethyl)carbamoyl)phenyl) benzamide] | 79 |

| Structure (SMILES) | melting point [°C] |
| --- | --- |
| O=C(Nc1ccccc1C(=O)NCCN1CCNCC1)c1ccc(F)cc1F [Compound 45, 2,4-difluoro-N-(2-((2-(piperazin-1-yl)ethyl)carbamoyl)phenyl) benzamide] | 84 |
| CN1CCN(CCNC(=O)c2ccccc2NC(=O)c2ccccc2)CC1 [Compound 47, 2-benzamido-N-(2-(4-methylpiperazin-1-yl)ethyl)benzamide] | 80 |
| CN1CCN(CCNC(=O)c2ccccc2NC(=O)c2ccc([N+](=O)[O-])cc2)CC1 [Compound 48, N-(2-(4-methylpiperazin-1-yl)ethyl)-2-(4-nitrobenzamido) benzamide] | 122 |
| CN1CCN(CCNC(=O)c2ccccc2NC(=O)c2cccc(F)c2)CC1 [Compound 50, 2-(3-fluorobenzamido)-N-(2-(4-methylpiperazin-1-yl)ethyl) benzamide] | 81 |
| CN1CCN(CCNC(=O)c2ccccc2NC(=O)c2cccc(Cl)c2)CC1 [Compound 51, 2-(3-chlorobenzamido)-N-(2-(4-methylpiperazin-1-yl)ethyl) benzamide] | 104 |
| CN1CCN(CCNC(=O)c2ccccc2NC(=O)c2ccc(Cl)cc2)CC1 [Compound 52, 2-(4-chlorobenzamido)-N-(2-(4-methylpiperazin-1-yl)ethyl) benzamide] | 99 |
| COc1ccccc1C(=O)Nc1ccccc1C(=O)NCCN1CCN(C)CC1 [Compound 53, 2-methoxy-N-(2-((2-(4-methylpiperazin-1-yl)ethyl)carbamoyl)phenyl)benzamide] | 111 |
| COc1ccc(C(=O)Nc2ccccc2C(=O)NCCN2CCN(C)CC2)cc1 [Compound 54, 2-(4-methoxybenzamido)-N-(2-(4-methylpiperazin-1-yl)ethyl) benzamide] | 114 |
| CN1CCN(CCNC(=O)c2ccccc2NC(=O)c2cc(F)cc(F)c2)CC1 [Compound 56, 3,5-difluoro-N-(2-((2-(4-methylpiperazin-1-yl)ethyl)carbamoyl)phenyl)benzamide] | 111 |
| CN1CCN(CCNC(=O)c2ccccc2NC(=O)c2ccc(F)cc2F)CC1 [Compound 57, 2,4-difluoro-N-(2-((2-(4-methylpiperazin-1-yl)ethyl)carbamoyl)phenyl)benzamide] | 121 to 122 |
| COc1ccc(C(=O)Nc2ccccc2C(=O)NCCN2CCN(C)CC2)c(F)c1 [Compound 58, 2-fluoro-4-methoxy-N-(2-((2-(4-methylpiperazin-1-yl)ethyl)carbamoyl)phenyl)benzamide] | 110 to 112 |
| COc1cc(NC(=O)c2ccccc2F)c(C(=O)NCCN2CCN(C)CC2)cc1OC [Compound 59, 2-(2-fluorobenzamido)-4,5-dimethoxy-N-(2-(4-methylpiperazin-1-yl)ethyl)benzamide] | 60 |
| COc1cc(NC(=O)c2ccccc2F)c(C(=O)NCCN2CCN(C)CC2)c(OC)c1OC [Compound 60, 6-(2-fluorobenzamido)-2,3,4-trimethoxy-N-(2-(4-methylpiperazin-1-yl)ethyl)benzamide] | 130 |
| COc1ccc(C(=O)Nc2cc(OC)c(OC)cc2C(=O)NCCN2CCN(C)CC2)cc1 [Compound 61, 4,5-dimethoxy-2-(4-methoxybenzamido)-N-(2-(4-methylpiperazin-1-yl)ethyl)benzamide] | 70 |
| COc1ccc(C(=O)Nc2cc(OC)c(OC)c(OC)c2C(=O)NCCN2CCN(C)CC2)cc1 [Compound 62, 2,3,4-trimethoxy-6-(4-methoxybenzamido)-N-(2-(4-methylpiperazin-1-yl)ethyl)benzamide] | 115 |
| CN1CCN(CCNC(=O)c2ccccc2NC(=O)c2cccnc2)CC1 [Compound 63, N-(2-((2-(4-methylpiperazin-1-yl)ethyl)carbamoyl)phenyl) nicotinamide] | 99 |
| COc1cc(NC(=O)c2cccnc2)c(C(=O)NCCN2CCN(C)CC2)cc1OC [Compound 64, N-(4,5-dimethoxy-2-((2-(4-methylpiperazin-1-yl)ethyl)carbamoyl)phenyl)nicotinamide] | 126 |
| COc1cc(NC(=O)c2cccnc2)c(C(=O)NCCN2CCN(C)CC2)c(OC)c1OC [Compound 65, N-(3,4,5-trimethoxy-2-((2-(4-methylpiperazin-1-yl)ethyl)carbamoyl)phenyl)nicotinamide] | 143 |
| CN1CCN(CCCNC(=O)c2ccccc2NC(=O)c2cccc3ccccc23)CC1 [Compound 68, N-(2-((3-(4-methylpiperazin-1-yl)propyl)carbamoyl)phenyl)-1-naphthamide] | 98 to 100 |
| CN1CCN(CCCNC(=O)c2ccccc2NC(=O)c2ccc3ccccc3c2)CC1 [Compound 69, N-(2-((3-(4-methylpiperazin-1-yl)propyl)carbamoyl)phenyl)-2-naphthamide] | 71 to 72 |
| O=C(Nc1ccccc1C(=O)NCCc1ccccc1)c1ccc(Cl)cc1 [Compound 76, 2-(4-chlorobenzamido)-N-phenethylbenzamide] | 104 to 106 |
| O=C(Nc1cccc(F)c1C(=O)NCCc1ccccc1)c1ccccc1F [Compound 81, 2-fluoro-6-(2-fluorobenzamido)-N-phenethylbenzamide] | 96 to 98 |
